# Assay results: patent publication US8691799B2, “Materials and methods for treatment of cancer and identification of anti-cancer compounds” (priority 2001, dated 2014)
# Legend:
# [1] = tested on: STAT3 DNA-binding activity; assay: Electrophoretic mobility shift assay (EMSA) of nuclear extracts; assay type: cell-based; conditions: nuclear extracts from v-Src/NIH 3T3 and A549 cells
# Method: Nuclear Extract Preparation and Gel Shift Assay. Nuclear extract preparation and electrophoretic mobility shift assay were carried out as previously described (Turkson, J. et al. Mol. Cell Biol., 1999, 19:7519-7528). The ^32P-radiolabeled oligonucleotide probe is hSIE (high affinity sis-inducible element, m67 variant, 5′-[…]-3′) (SEQ ID NO. 1) that binds STAT1 and STAT3.
# v-Src/NIH 3T3 tumors = assay: Antitumor activity, v-Src-transformed NIH 3T3 tumors in nude mice; assay type: in vivo
# Source text: Antitumor Activity in the Nude Mouse Tumor Xenograft Model. Nude mice and C57 BL-6 black mice (National Cancer Institute, Bethesda, Md.) were maintained in accordance with the Institutional Animal Care and Use Committee (IACUC) procedures and guidelines. v-Src- and oncogenic H-Ras-transformed NIH 3T3, A549, MDA-MB-468 and Calu-1 cells were harvested, resuspended in PBS and injected s.c. into the right and left flank (10×10^6 cells per flank) of 8 week old female nude mice as reported previously (Sun, J. et al. Cancer Res., 1999, 59:4919-4926). Similarly, murine B16-F10 Melanoma cells were injected s.c. into the right and left flank (10^6 cells per flank) of C57 black mice. […] […] The tumor volumes were determined by measuring the length (l) and the width (w) and calculating the volume (V=1w^2/2) as described previously (Sun, J. et al. Cancer Res., 1999, 59:4919-4926). Statistical significance between control and treated animals were evaluated by using Student's t-test. For the mouse survival experiments, C57 BL-6 black mice were implanted s.c. with B16-F10 cells (10^5 to 10^6 cells per flank). […] Percent surviving mice was determined by monitoring the death of mice until all mice died. Two experiments of 12 animals each (6 control and 6 treated with JSI-124) were carried out. For statistical analysis: for each of the two experiments, mice receiving JSI-124 were compared to those receiving vehicle control with respect to survival using the permutation log rank test as implemented in the statistical software package, ProcStatXact (p-values are two sided and exact).
# JAK2 = assay: Western blotting for JAK2 protein levels; assay type: cell-based, human; conditions: A549 and MDA-MB-468 cells
# Method: Western Blotting. Treated cell samples were lysed in 30 mM Hepes, pH 7.5, 10 mM NaCl, 5 mM MgCl2, 25 mM NaF, 1 mM EGTA, 1% Triton-X-100, 10% glycerol, 2 mM sodium orthovanadate, 10 μg/ml aprotinin, 10 μg/ml soybean trypsin inhibitor, 25 μg/ml leupeptin, 2 mM PMSF, and 6.4 mg/ml p-nitrophenylphosphate. Phospho-STAT3, phospho-AKT, phospho-MEK, and phospho-p42/p44 MAPK antibodies were obtained from Cell Signaling Technologies, Cambridge, Mass. Antibodies to STAT3, JAK2, and phospho-INK were purchased from Santa Cruz Biotechnology, Santa Cruz, Calif. Phospho-JAK2 antibody came from Upstate Biotechnology, Lake Placid, N.Y. Membranes were blocked in either 5% milk in PBS, pH 7.4, containing 0.1% Tween-20 (PBS-T) or 1% BSA in TBS, pH 7.5, containing 0.1% Tween-20 (TBS-T). Phospho-specific antibodies (excepting P-MAPK and P-JNK) were incubated in 1% BSA in TBS-T while all other antibodies were diluted in 5% milk in PBS-T for either 2 hr at room temperature or overnight at 4° C. HRP-conjugated secondary antibodies (Jackson ImmunoResearch) were diluted in 5% milk in either PBS-T or TBS-T at 1:1000 dilution for one hour at room temperature. Western blots were visualized using enhanced chemiluminescence as described previously (Blaskovich, M. A. et al. Nat. Biotechnol., 2000, 18:1065-1070).
# JAK1 = assay: JAK kinase autophosphorylation assay on immunoprecipitates (JAK1); assay type: biochemical; conditions: immunoprecipitates from MDA-MB-468 or v-Src/NIH 3T3 cells; AG490 100 μM, PD180970 2 μM
# Method: JAK Kinase Assays. A549, MDA-MB-468, and v-Src transformed NIH 3T3 cells were harvested, washed three times in PBS-V (10 mM sodium phosphate, pH 7.4, 137 mM NaCl, 1 mM sodium orthovanadate) then lysed for 30 min on ice in JAK kinase lysis buffer (25 mM Hepes, pH 7.4, 0.1% Triton-X-100, 0.5 mM DTT, 1 mM sodium orthovanadate, 1 mM PMSF, 10 μg/ml aprotinin, 10 μg/ml leupeptin). Samples were spun at high speed to clear, and 800-1000 μg of protein was immunoprecipitated per treatment condition with 50 ng of either JAK1 or JAK2 antibody (Santa Cruz Biotechnology) rocking overnight at 4° C. 25 μl of protein A/G PLUS agarose then was added and rocking continued for 1 hr at 4° C. Samples were spun to collect agarose pellet, and pellet washed twice in wash buffer (50 mM Hepes, pH 7.4, 0.1% Triton-X-100, 0.5 mM DTT, 150 mM NaCl) and once in phosphorylation buffer (50 mM Hepes, pH 7.4, 0.1% Triton-X-100, 0.5 mM DTI, 6.25 mM manganese chloride, 100 mM NaCl). Kinase reactions were performed at 30° C. for 15 min in a final volume of 100 μl of phosphorylation buffer. Samples were pretreated with DMSO control, JSI-124, and control compounds (AG490, 100 μM, and […], 2 μM) before addition of 20 μCi/sample y-[^32P]ATP. Reaction was halted using stop buffer (wash buffer plus 10 mM EDTA), samples spun to collect pellet, then pellet washed once with stop buffer and twice with wash buffer. Samples were then placed in 2×SDS-PAGE sample buffer, boiled at 100° C., and run on 8% SDS-PAGE gels to separate proteins. Autophosphorylation results were visualized by autoradiography.
smiles,measurement,setting,value
"CC(C)(O)/C=C/C(=O)[C@](C)(O)[C@H]1[C@H](O)C[C@@]2(C)[C@@H]3CC=C4[C@@H](C=C(O)C(=O)C4(C)C)[C@]3(C)C(=O)C[C@]12C [JSI-124, cucurbitacin I]",STAT3 DNA-binding activity (EMSA),[1],greatly reduced
same,inhibition of growth of v-src transformed NIH 3T3 tumors (in words),v-Src/NIH 3T3 tumors; 1 mg/Kg/day intraperitoneally,inhibits tumor growth
same,inhibition of growth of v-Src/NIH 3T3 tumors,v-Src/NIH 3T3 tumors; 1 mg/kg/day i.p.,64%
same,JAK2 protein levels,JAK2,no effect on the protein levels of STAT3 and JAK2
same,JAK1 kinase activity (autophosphorylation) in vitro,JAK1,not affected
